Active and inactive are the calls of the source. The calls are words filed in the database; no cut-off is given here.
Tests used:
[1] = test system: trychophyton mentagrophytes; assay: Inhibitory activity against chitin synthase from Trichophyton mentagrophytes at 128 ug/mL; No inhibition
[2] = test system: Microsporum canis; assay: Inhibitory activity against chitin synthase from Microsporum canis at 128 ug/mL; No inhibition
[3] = Inhibitory activity against chitin synthase from Saccharomyces cerevisiae at a concentration up to 500 uM; No inhibition
[4] = test system: Aspergillus fumigatus; assay: Inhibitory activity against chitin synthase from Aspergillus fumigatus at 128 ug/mL; No inhibition
[5] = biological target: Chitin synthase 1 (Candida albicans) (UniProt P23316); assay: Inhibitory activity against chitin synthase from Candida albicans at 128 ug/mL; No inhibition
Sequence of Chitin synthase 1 (Candida albicans) (P23316 whole entry, looked up): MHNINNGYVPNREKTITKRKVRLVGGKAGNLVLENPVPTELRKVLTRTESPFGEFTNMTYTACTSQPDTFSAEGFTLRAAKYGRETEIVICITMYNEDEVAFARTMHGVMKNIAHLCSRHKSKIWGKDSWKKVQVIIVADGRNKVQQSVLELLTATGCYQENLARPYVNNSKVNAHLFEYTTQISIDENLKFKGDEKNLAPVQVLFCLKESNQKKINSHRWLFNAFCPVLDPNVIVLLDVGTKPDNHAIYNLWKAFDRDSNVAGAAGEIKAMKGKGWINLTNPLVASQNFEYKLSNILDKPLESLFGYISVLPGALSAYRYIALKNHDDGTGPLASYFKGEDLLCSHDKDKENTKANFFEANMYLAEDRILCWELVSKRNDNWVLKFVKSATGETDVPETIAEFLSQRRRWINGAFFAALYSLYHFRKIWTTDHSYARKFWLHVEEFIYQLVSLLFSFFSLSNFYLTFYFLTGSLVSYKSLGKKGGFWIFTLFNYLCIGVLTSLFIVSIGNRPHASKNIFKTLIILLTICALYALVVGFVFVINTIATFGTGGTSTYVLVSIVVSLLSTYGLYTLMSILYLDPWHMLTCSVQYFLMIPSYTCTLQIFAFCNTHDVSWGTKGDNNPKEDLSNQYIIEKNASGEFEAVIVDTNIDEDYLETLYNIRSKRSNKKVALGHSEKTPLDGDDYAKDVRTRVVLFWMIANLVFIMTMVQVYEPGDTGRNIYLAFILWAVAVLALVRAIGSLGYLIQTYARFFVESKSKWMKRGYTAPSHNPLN

[6] = test system: Cryptococcus neoformans; assay: Inhibitory activity against chitin synthase from Cryptococcus neoformans at 128 ug/mL; No inhibition
[7] = Inhibitory activity against chitin synthase from Saccharomyces cerevisiae

Structure (SMILES)	Activity [1]	Activity [2]	Ki [3]	Activity [4]	Activity [5]	Activity [6]	Ki [7] [nM]
CCOP(=O)(OCC)C(F)(F)C1C(O)C(O)C(CO)N1CCNC1C(CO)OC(OC)C(NC(C)=O)C1O (configuration not stated)	inactive	inactive	Not Active	inactive	inactive	inactive	
C[C@@H]([C@H](N)C(=O)N[C@H](C(=O)O)[C@H]1O[C@@H](n2ccc(=O)[nH]c2=O)[C@H](O)[C@@H]1O)[C@H](O)c1ccc(O)cn1 [NIKKOMYCIN]							600

Source: ChEMBL document CHEMBL1133221 (2000)
